Source: US5952390A, “10-substituted 1,8-dihydroxy-9(10H) anthracenone pharmaceuticals” (Teva Pharmaceutical Industries Ltd., priority 1998, dated 1999)
Read-outs that look alike come from different tables or passages of the source.

Columns and labels:
5-LO in bovine PMNL = target: T1, 5-LO in bovine PMNL (Bos taurus, UniProt F1MQ78); test: Bovine PMNL 5-lipoxygenase assay (inhibition of 5-HETE and LTB4 biosynthesis); type: cell-based; conditions: at 30 μM
T1 construct: endogenous in cells; host or cells: polymorphonuclear leukocytes isolated from bovine blood
T1 sequence (F1MQ78 1-674): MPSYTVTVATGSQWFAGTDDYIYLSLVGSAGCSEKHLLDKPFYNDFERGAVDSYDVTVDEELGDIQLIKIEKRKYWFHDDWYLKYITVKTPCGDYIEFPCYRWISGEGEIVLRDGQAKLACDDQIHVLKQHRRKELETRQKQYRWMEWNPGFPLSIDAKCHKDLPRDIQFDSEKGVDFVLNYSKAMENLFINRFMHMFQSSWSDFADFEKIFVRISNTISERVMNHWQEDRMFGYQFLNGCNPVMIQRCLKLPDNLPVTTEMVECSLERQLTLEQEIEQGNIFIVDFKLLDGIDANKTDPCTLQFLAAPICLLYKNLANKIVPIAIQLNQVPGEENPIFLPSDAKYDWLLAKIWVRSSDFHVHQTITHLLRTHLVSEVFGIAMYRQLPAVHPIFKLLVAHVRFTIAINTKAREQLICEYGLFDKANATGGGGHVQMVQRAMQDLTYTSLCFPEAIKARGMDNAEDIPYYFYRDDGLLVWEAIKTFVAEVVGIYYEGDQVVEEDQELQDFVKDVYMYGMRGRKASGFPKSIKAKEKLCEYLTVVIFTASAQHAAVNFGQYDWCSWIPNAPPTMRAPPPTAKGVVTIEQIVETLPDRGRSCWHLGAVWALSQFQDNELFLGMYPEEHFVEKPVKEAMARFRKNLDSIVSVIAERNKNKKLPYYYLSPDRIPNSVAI

[1] = Reducing activity toward DPPH; conditions: Table I (Addendum); equimolar amount of test compound
Procedure: This assay followed generally the procedures of Blois, M. S., "Antioxidant Determinations by the Use of a Stable Free Radical", Nature, 181, 1199-1200 (1958) and Kato, K. et al., "Studies on Scavengers of Active Oxygen Species. 1. Synthesis and Biological Activity of 2-O-Alkylascorbic Acids", J. Med. Chem., 31, 793-798 (1988). In time studies, 1 ml of test compound solution (10^-4 M) was added to 1 ml of DPPH solution (10^-4 M), each in acetone/PBS (1+1 V/V), and the reduction of DPPH was followed spectrophotometrically at 516 nm. Plots of the reciprocal of DPPH concentrations against time gave straight lines, and the second-orderrate constants were obtained from the slopes and are expressed as mean values (n=3-6). In the cases where DPPH was very fast approximate values are given and expressed as kDPPH >100 or kDPPH >>100M^-1s^-1.
Because a radical scavenging antioxidant reacts rapidly with the stable free radical 2,2-diphenyl-1-picrylhydrazyl (DPPH), Blois, M. S., "Antioxidant Determination by the Use of a Stable Free Radical", Nature, 181, 1199-1200 (1958); Kato, K. et al., "Studies on Scavengers of Active Oxygen Species. I. Synthesis and Biological Activity of 2-O-Alkylascorbic Acids", J. Med. Chem., 31, 793-798 (1988), the reactivities of the new compounds with DPPH were determined by decrease in absorbance at 516 nm.

skin = conditions: topical/therapeutic application; cited from earlier work

## CCCC(=O)C1c2cccc(O)c2C(=O)c2c(O)cccc21 [Butantrone, 10-Butyryl-Dithranol]
5-LO in bovine PMNL; PMNL, Table I (Addendum), read-out: 5-LO percent inhibition (value in parentheses)
  inhibition at 30 µM: 38%
5-LO in bovine PMNL; bovine PMNL, read-out: inhibition at 30 μM
  inhibition at 30 µM: 38%
[1]
  kDPPH: 7.0 ± 0.6 M⁻¹ s⁻¹
skin
  irritation, in words: commonly elicits a widespread and delayed irritation effect
